Reference: PMC7412237, “Competition NMR for Detection of Hit/Lead Inhibitors of Protein–Protein Interactions” (Molecules, 2020)

How the values were obtained:
MdmX = biological target: T1, MdmX (Homo sapiens, UniProt O15151); experiment: Fluorescence polarization competition assay (displacement of P2 peptide), MdmX; details: read-out: Ki towards MdmX; FP assay
T1 sequence (O15151 18-111): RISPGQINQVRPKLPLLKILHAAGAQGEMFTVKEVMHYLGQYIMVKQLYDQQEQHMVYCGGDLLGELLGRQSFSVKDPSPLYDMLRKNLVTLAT

effector T cells = details: T cells attenuated by soluble and membrane-bound PD-L1; ref [59]; cited from earlier work
(N66A)PD-1/PD-L1 complex = biological target: T2, (N66A)PD-1/PD-L1 complex (Homo sapiens, UniProt Q9NZQ7); experiment: w-AIDA-NMR on (N66A)PD-1/PD-L1 complex; format: binding
T2 construct: made in house; host or cells: E. coli BL21 (DE3)

PD-1/PD-L1 complex = biological target: T3, PD-1/PD-L1 complex (Homo sapiens, UniProt Q9NZQ7); details: ref [59]; cited from earlier work
T3 construct: made in house; host or cells: E. coli BL21 (DE3)
T3 sequence (Q9NZQ7 18-134, one chain of several): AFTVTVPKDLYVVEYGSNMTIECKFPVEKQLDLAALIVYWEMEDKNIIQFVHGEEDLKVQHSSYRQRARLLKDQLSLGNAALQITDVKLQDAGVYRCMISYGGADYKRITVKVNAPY

T2 sequence (Q9NZQ7 18-134, stated change not applied, one chain of several): as the sequence (Q9NZQ7 18-134, one chain of several) above

| Structure (SMILES) | Ki (MdmX) [µM] | Activation of effector T cells (effector T cells) | Recovery of PD-1 signals in 1D 1H-NMR spectra ((N66A)PD-1/PD-L1 complex; (N66A)PD-1/PD-L1 complex, molar ratio 1:1) | Dissociation of (N66A)PD-1/PD-L1 complex (recovery of 2D HMQC signals) ((N66A)PD-1/PD-L1 complex; equimolar amount of compound) | Dissociation of human PD-1/PD-L1 complex in vitro (PD-1/PD-L1 complex) |
| --- | --- | --- | --- | --- | --- |
| CC(C)(C)NC(=O)C(c1c(C(=O)O)[nH]c2cc(Cl)ccc12)N(C=O)Cc1cc(F)cc(F)c1F (centres unmarked) [compound 4] | 27 | – | – | – | – |
| Cc1c(COc2cc(OCc3cccc(C#N)c3)c(CN3C[C@H](O)C[C@@H]3C(=O)O)cc2Cl)cccc1-c1ccc2c(c1)OCCO2 [BMS-1166] | – | activates the effector T cells | full recovery of the PD-1 signals | full recovery of 2D HMQC spectrum | efficiently dissociates the human PD-1/PD-L1 complex in vitro |
